10 compounds from patent US11981658B2, “Substituted aminopyridine compounds as EGFR inhibitors” (YUHAN CORPORATION, priority 2021, dated 2024) can be followed below.

SMILES strings stand for the structures. Read-outs that look alike come from different tables or passages of the source.

One assay concerns the target EGFR Del19/T790M/C797S (Homo sapiens, UniProt P00533, C797S/DEL746-750/T790M). Put plainly: Biochemical EGFR kinase inhibition assay (Lance Ultra TR-FRET), triple mutant del19/T790M/C797S. Summed up: (§1)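 Step 1: compound in kinase buffer, 0.003–10 μM. Step 2: kinase reaction 1 h at room temperature. Step 4: TR-FRET read at 615/665 nm; IC50 calculated.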
In general terms: In TR-FRET formats the signal depends on donor and acceptor labels being close together.

For another assay, the target named is EGFR L858R/T790M/C797S (Homo sapiens, UniProt P00533, C797S/L858R/T790M). Put plainly: Biochemical EGFR kinase inhibition assay (Lance Ultra TR-FRET), triple mutant L858R/T790M/C797S. Put shortly:
as §1

The target of a further assay is EGFR Del19/C797S (Homo sapiens, UniProt P00533, C797S/DEL746-750). Put plainly: Biochemical EGFR kinase inhibition assay (Lance Ultra TR-FRET), double mutant del19/C797S. Summed up:
as §1

The target in the next assay is EGFR L858R/C797S (Homo sapiens, UniProt P00533, C797S/L858R). Description: Biochemical EGFR kinase inhibition assay (Lance Ultra TR-FRET), double mutant L858R/C797S. Put shortly:
as §1

The target of a further assay is EGFR wildtype (WT) (Homo sapiens, UniProt P00533). Description: Biochemical EGFR kinase inhibition assay (Lance Ultra TR-FRET), wildtype. Summed up:
as §1

[1] abbreviates: IC50 Del19/T790M/C797S (nM), 100 μM ATP.
Setting [2] is: IC50 L858R/T790M/C797S (nM), 100 μM ATP.
[3] abbreviates: IC50 Del19/C797S (nM), 100 μM ATP.
Where [4] appears, read: IC50 L858R/C797S (nM), 100 μM ATP.
The mark [5] stands for this setting: ATP at Km, read-out: IC50 Del19/T790M/C797S (nM), Km ATP.
Setting [6] is: ATP at Km, read-out: IC50 L858R/T790M/C797S (nM), Km ATP.
[7] abbreviates: ATP at Km, read-out: IC50 Del19/C797S (nM), Km ATP.
[8] abbreviates: ATP at Km, read-out: IC50 L858R/C797S (nM), Km ATP.
Where [9] appears, read: ATP at Km, read-out: IC50 WT (nM), Km ATP.
[10] abbreviates: Km ATP, read-out: IC50 Del19/T790M/C797S (nM), Km ATP.
Setting [11] is: Km ATP, read-out: IC50 L858R/T790M/C797S (nM), Km ATP.
The mark [12] stands for this setting: Km ATP, read-out: IC50 Del19/C797S (nM), Km ATP.
[13] abbreviates: Km ATP, read-out: IC50 L858R/C797S (nM), Km ATP.
The mark [14] stands for this setting: Km ATP, read-out: IC50 WT (nM), Km ATP.

Sequence of EGFR Del19/C797S (P00533 with tags, fused parts or gaps DEL746-750/C797S): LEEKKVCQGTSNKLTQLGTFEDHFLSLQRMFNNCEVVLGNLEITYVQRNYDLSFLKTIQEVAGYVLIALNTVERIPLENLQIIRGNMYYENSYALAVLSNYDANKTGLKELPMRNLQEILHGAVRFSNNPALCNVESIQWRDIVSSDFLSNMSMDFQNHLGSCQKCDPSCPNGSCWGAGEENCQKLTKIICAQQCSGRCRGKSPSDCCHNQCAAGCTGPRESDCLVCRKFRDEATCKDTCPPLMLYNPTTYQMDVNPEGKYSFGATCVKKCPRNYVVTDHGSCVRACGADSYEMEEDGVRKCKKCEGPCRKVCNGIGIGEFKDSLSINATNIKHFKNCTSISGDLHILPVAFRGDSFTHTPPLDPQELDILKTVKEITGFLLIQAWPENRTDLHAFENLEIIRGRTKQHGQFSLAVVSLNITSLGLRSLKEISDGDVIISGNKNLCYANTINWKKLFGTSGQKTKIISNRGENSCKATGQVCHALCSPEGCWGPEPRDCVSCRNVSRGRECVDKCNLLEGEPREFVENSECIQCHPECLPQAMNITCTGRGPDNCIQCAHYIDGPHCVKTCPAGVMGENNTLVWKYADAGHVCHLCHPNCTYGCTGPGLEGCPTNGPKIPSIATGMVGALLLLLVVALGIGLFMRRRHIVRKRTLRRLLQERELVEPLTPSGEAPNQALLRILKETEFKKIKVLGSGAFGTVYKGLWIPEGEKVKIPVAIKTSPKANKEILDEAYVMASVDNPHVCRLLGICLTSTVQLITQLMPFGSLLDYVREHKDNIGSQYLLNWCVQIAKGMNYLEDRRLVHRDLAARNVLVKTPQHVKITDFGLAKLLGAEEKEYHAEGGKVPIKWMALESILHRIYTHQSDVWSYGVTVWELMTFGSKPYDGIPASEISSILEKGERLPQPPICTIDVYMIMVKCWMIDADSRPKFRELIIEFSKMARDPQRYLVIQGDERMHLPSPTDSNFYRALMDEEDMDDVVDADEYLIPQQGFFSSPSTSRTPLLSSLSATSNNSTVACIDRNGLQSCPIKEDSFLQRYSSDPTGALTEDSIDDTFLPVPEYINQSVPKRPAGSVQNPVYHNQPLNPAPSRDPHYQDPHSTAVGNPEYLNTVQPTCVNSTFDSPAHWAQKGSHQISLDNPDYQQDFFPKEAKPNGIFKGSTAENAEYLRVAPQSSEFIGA
Sequence of EGFR Del19/T790M/C797S (P00533 with tags, fused parts or gaps DEL746-750/T790M/C797S): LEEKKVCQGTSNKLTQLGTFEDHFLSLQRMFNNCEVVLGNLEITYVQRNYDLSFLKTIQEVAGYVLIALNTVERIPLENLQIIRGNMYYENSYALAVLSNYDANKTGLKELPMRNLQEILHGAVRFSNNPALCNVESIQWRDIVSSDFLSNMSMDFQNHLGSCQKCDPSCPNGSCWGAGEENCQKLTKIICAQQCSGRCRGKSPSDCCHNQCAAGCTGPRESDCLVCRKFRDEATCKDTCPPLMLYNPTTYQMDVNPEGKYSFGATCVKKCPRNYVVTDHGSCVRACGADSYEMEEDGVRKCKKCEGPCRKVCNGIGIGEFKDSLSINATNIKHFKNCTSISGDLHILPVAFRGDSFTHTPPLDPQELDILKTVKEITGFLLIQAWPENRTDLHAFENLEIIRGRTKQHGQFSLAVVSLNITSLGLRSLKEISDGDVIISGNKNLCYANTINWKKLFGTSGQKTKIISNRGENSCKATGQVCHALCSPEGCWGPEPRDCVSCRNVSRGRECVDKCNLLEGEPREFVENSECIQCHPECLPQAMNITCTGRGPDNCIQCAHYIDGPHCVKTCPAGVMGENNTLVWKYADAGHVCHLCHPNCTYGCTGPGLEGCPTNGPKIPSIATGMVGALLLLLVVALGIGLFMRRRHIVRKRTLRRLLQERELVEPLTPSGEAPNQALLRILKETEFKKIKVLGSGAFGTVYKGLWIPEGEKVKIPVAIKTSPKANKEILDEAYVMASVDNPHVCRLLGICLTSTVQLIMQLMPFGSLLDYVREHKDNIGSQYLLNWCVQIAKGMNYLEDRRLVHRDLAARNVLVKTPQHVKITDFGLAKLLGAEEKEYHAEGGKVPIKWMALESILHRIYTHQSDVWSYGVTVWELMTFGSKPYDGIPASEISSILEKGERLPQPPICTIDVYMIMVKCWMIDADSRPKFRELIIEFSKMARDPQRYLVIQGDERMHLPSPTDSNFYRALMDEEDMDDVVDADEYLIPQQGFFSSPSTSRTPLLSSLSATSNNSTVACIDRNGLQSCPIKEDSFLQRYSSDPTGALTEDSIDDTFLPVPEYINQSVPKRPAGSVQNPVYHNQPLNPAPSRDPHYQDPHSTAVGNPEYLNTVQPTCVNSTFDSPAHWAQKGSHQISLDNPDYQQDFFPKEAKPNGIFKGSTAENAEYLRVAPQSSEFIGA
Sequence of EGFR wildtype (WT) (P00533 25-1210): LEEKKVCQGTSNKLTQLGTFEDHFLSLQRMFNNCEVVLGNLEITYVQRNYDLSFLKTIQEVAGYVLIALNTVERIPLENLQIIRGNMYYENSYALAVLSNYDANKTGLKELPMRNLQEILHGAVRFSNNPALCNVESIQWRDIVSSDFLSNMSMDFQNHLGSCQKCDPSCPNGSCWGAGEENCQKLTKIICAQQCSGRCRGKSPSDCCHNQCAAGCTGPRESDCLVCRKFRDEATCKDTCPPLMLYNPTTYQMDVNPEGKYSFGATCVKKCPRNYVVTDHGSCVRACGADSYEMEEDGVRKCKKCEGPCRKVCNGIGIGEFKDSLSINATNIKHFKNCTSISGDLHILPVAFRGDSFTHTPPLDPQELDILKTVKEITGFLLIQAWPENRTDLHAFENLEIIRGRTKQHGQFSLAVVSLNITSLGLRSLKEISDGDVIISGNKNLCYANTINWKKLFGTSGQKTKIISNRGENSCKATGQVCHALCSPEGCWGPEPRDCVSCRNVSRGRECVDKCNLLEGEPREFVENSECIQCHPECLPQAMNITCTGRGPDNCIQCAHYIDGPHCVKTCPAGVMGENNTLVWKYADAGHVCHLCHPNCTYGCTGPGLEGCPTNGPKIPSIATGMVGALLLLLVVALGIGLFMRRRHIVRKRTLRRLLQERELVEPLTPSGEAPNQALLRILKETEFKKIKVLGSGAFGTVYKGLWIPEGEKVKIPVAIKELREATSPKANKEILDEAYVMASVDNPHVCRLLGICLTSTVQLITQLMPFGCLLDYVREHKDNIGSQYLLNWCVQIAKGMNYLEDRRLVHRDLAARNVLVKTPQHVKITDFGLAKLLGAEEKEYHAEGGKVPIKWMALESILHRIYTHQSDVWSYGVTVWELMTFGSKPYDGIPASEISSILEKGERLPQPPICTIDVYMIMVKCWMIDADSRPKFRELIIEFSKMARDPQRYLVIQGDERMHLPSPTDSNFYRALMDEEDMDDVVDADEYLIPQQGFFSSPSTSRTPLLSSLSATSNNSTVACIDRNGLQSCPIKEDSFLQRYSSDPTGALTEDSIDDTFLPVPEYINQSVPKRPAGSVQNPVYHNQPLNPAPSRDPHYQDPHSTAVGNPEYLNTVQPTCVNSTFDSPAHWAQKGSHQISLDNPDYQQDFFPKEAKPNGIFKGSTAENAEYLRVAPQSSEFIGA
Sequence of EGFR L858R/T790M/C797S (P00533 25-1210 T790M/C797S/L858R): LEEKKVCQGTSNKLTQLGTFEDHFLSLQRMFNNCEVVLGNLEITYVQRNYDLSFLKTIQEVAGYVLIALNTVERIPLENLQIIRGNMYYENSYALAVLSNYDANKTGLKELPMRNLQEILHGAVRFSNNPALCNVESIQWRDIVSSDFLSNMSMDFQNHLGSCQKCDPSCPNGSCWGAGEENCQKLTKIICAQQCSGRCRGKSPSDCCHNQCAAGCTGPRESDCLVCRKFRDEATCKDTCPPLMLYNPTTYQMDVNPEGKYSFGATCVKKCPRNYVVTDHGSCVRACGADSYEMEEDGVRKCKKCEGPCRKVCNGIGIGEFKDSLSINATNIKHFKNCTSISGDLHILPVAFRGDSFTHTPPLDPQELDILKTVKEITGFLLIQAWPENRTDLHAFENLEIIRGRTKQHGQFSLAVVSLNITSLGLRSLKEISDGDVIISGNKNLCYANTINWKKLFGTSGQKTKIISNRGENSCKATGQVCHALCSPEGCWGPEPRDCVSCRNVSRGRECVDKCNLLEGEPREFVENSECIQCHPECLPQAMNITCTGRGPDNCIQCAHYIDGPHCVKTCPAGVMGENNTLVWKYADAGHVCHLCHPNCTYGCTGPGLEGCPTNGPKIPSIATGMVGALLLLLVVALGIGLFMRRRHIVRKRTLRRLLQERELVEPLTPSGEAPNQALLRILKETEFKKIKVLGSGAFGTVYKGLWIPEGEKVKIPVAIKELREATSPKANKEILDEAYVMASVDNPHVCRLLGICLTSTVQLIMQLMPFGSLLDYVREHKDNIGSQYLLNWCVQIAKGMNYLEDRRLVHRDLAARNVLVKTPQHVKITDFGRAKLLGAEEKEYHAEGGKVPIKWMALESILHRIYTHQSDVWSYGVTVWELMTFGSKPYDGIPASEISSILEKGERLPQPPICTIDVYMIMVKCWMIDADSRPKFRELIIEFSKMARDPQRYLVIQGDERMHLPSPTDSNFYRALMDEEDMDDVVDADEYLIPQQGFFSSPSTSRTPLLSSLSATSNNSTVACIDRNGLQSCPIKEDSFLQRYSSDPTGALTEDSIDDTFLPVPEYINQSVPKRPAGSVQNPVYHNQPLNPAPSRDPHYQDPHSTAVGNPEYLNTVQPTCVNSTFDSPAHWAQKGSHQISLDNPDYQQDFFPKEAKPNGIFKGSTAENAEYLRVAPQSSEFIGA

As for `CN(C)C[C@@H]1CCCN(c2cc(Nc3ccnc(-c4cnn(S(=O)(=O)C5CC5)c4)n3)ncc2C#Cc2cnn(C)c2)C1` [Example 384, (S)-2-(1-(Cyclopropylsulfonyl)-1H-pyrazol-4-yl)-N-(4-(3-((dimethylamino)methyl)piperidin-1-yl)-5-((1-methyl-1H-pyrazol-4-yl)ethynyl)pyridin-2-yl)pyrimidin-4-amine], the IC50 against EGFR Del19/T790M/C797S (setting [1]) was 1.3 nM; on EGFR L858R/T790M/C797S (setting [2]) it was 3.1 nM; against EGFR Del19/C797S (setting [3]) it was 10.9 nM; on EGFR L858R/C797S (setting [4]) it was 49.6 nM; at EGFR wildtype (WT) (IC50 WT (nM), 100 μM ATP), above 10000 nM.

Turning to `O=S(=O)(C1CC1)n1cc(-c2nccc(Nc3cc(N[C@H]4CC[C@@H](O)CC4)c(C#Cc4ccc(CN5CCOCC5)cc4)cn3)n2)cn1` [Example 157, (1s,4s)-4-((2-((2-(1-(Cyclopropylsulfonyl)-1H-pyrazol-4-yl)pyrimidin-4-yl)amino)-5-((4-(morpholinomethyl)phenyl)ethynyl)pyridin-4-yl)amino)cyclohexan-1-ol], the IC50 on EGFR Del19/T790M/C797S (setting [5]) came to 3.3 nM; against EGFR Del19/T790M/C797S (setting [1]), 3.6 nM; at EGFR L858R/T790M/C797S (setting [6]) it was 1.7 nM; against EGFR L858R/T790M/C797S (setting [2]), 4.6 nM; at EGFR Del19/C797S (setting [7]), 3.7 nM; against EGFR Del19/C797S (setting [3]), 10.6 nM. Further, the IC50 at EGFR L858R/C797S (setting [8]) is 3.3 nM; at EGFR L858R/C797S (setting [4]), 40.8 nM; at EGFR wildtype (WT) (setting [9]) it was 127 nM; at EGFR wildtype (WT) (IC50 WT (nM), 100 μM ATP) it was above 10000 nM.

For the compound `CC1(CO)CCN(c2cc(Nc3ccnc(-c4cnn(S(=O)(=O)C5CC5)c4)n3)ncc2C#Cc2ccc(C(=O)N3CCOCC3)cc2)CC1` [Example 263, (4-((6-((2-(1-(Cyclopropylsulfonyl)-1H-pyrazol-4-yl)pyrimidin-4-yl)amino)-4-(4-(hydroxymethyl)-4-methylpiperidin-1-yl)pyridin-3-yl)ethynyl)phenyl)(morpholino)methanone], the IC50 on EGFR Del19/T790M/C797S (setting [5]) stood at 1.1 nM; against EGFR Del19/T790M/C797S (setting [1]), 1.5 nM; at EGFR L858R/T790M/C797S (setting [6]), 0.4 nM; at EGFR L858R/T790M/C797S (setting [2]) it was 1.2 nM; at EGFR Del19/C797S (setting [7]), 0.8 nM; at EGFR Del19/C797S (setting [3]) it was 1.3 nM. Further, the IC50 is 0.7 nM on EGFR L858R/C797S (setting [8]); 3.2 nM against EGFR L858R/C797S (setting [4]); 3 nM on EGFR wildtype (WT) (setting [9]); above 10000 nM against EGFR wildtype (WT) (IC50 WT (nM), 100 μM ATP).

Take `CC1(CO)CCN(c2cc(Nc3ccnc(Nc4ccccc4S(C)(=O)=O)n3)ncc2C#Cc2cnn(C(F)F)c2)CC1` [Example 271, (1-(5-((1-(Difluoromethyl)-1H-pyrazol-4-yl)ethynyl)-2-((2-((2-(methylsulfonyl)phenyl)amino)pyrimidin-4-yl)amino)pyridin-4-yl)-4-methylpiperidin-4-yl)methanol]: the IC50 on EGFR Del19/T790M/C797S (setting [5]) was found to be 1.8 nM; at EGFR Del19/T790M/C797S (setting [1]) it was 3 nM; at EGFR L858R/T790M/C797S (setting [6]), 6.7 nM; against EGFR L858R/T790M/C797S (setting [2]) it was 9.2 nM; on EGFR Del19/C797S (setting [7]), 68.5 nM; against EGFR Del19/C797S (setting [3]), 111 nM. Besides, the IC50 on EGFR L858R/C797S (setting [8]) was 439 nM; at EGFR L858R/C797S (setting [4]), above 10000 nM; on EGFR wildtype (WT) (setting [9]), 411 nM; at EGFR wildtype (WT) (IC50 WT (nM), 100 μM ATP) it was above 10000 nM.

As for `CC1(CO)CCN(c2cc(Nc3ccnc(-c4cnn(S(=O)(=O)C5CC5)c4)n3)ncc2C#Cc2cnc(C(F)(F)F)s2)CC1` [Example 292, (1-(2-((2-(1-(Cyclopropylsulfonyl)-1H-pyrazol-4-yl)pyrimidin-4-yl)amino)-5-((2-(trifluoromethyl)thiazol-5-yl)ethynyl)pyridin-4-yl)-4-methylpiperidin-4-yl)methanol], the IC50 on EGFR Del19/T790M/C797S (setting [5]) stood at 4.9 nM; on EGFR Del19/T790M/C797S (setting [1]), 2.2 nM; on EGFR L858R/T790M/C797S (setting [6]), 2.4 nM; against EGFR L858R/T790M/C797S (setting [2]), 4.2 nM; on EGFR Del19/C797S (setting [7]), 12.2 nM; against EGFR Del19/C797S (setting [3]), 10.4 nM. Besides, the IC50 was 38.7 nM on EGFR L858R/C797S (setting [8]); 146 nM on EGFR L858R/C797S (setting [4]); 101 nM at EGFR wildtype (WT) (setting [9]); above 10000 nM at EGFR wildtype (WT) (IC50 WT (nM), 100 μM ATP).

Take `O=S(=O)(C1CC1)n1cc(-c2nccc(Nc3cc(N4CCC5(CCO5)CC4)c(C#Cc4ncc(CN5CCOCC5)cn4)cn3)n2)cn1` [Example 367, 2-(1-(Cyclopropylsulfonyl)-1H-pyrazol-4-yl)-N-(5-((5-(morpholinomethyl)pyrimidin-2-yl)ethynyl)-4-(1-oxa-7-azaspiro[3.5]nonan-7-yl)pyridin-2-yl)pyrimidin-4-amine]: the IC50 is 0.4 nM against EGFR Del19/T790M/C797S (setting [1]); 0.3 nM on EGFR Del19/T790M/C797S (setting [10]); 1.2 nM at EGFR L858R/T790M/C797S (setting [2]); 0.1 nM at EGFR L858R/T790M/C797S (setting [11]); 3.5 nM against EGFR Del19/C797S (setting [3]); 1.6 nM on EGFR Del19/C797S (setting [12]). Further, the IC50 against EGFR L858R/C797S (setting [4]) is 25.6 nM; on EGFR L858R/C797S (setting [13]) it was 3.9 nM; against EGFR wildtype (WT) (IC50 WT (nM), 100 μM ATP), above 10000 nM; at EGFR wildtype (WT) (setting [14]), 7.6 nM.

On to `CN(C)C(=O)c1ccc(C#Cc2cnc(Nc3ccnc(-c4cnn(S(=O)(=O)C5CC5)c4)n3)cc2N2CCC(C)(CO)CC2)cc1` [Example 262, 4-((6-((2-(1-(Cyclopropylsulfonyl)-1H-pyrazol-4-yl)pyrimidin-4-yl)amino)-4-(4-(hydroxymethyl)-4-methylpiperidin-1-yl)pyridin-3-yl)ethynyl)-N,N-dimethylbenzamide], for which the IC50 at EGFR Del19/T790M/C797S (setting [5]) was found to be 1.2 nM; against EGFR Del19/T790M/C797S (setting [1]) it was 1.4 nM; on EGFR L858R/T790M/C797S (setting [6]), 0.4 nM; on EGFR L858R/T790M/C797S (setting [2]) it was 1.3 nM; at EGFR Del19/C797S (setting [7]) it was 0.8 nM; on EGFR Del19/C797S (setting [3]), 1.1 nM. Besides, the IC50 was 0.9 nM on EGFR L858R/C797S (setting [8]); 5.7 nM against EGFR L858R/C797S (setting [4]); 4.4 nM on EGFR wildtype (WT) (setting [9]); above 10000 nM against EGFR wildtype (WT) (IC50 WT (nM), 100 μM ATP).

For the compound `Cn1cc(C#Cc2cnc(Nc3ccnc(-c4cnn(S(=O)(=O)C5CC5)c4)n3)cc2N2CCC(CO)C2)cn1` (stereo not drawn) [Example 33, (1-(2-((2-(1-(Cyclopropylsulfonyl)-1H-pyrazol-4-yl)pyrimidin-4-yl)amino)-5-((1-methyl-1H-pyrazol-4-yl)ethynyl)pyridin-4-yl)pyrrolidin-3-yl)methanol], the IC50 was 1.9 nM against EGFR Del19/T790M/C797S (setting [1]); 3.7 nM on EGFR L858R/T790M/C797S (setting [2]); 10.2 nM against EGFR Del19/C797S (setting [3]); 152 nM against EGFR L858R/C797S (setting [4]); above 10000 nM on EGFR wildtype (WT) (IC50 WT (nM), 100 μM ATP).

Turning to `CN(C)CCC1CCN(c2cc(Nc3ccnc(-c4cnn(S(=O)(=O)C5CC5)c4)n3)ncc2C#Cc2cnn(CC(F)(F)F)c2)CC1` [Example 349, 2-(1-(Cyclopropylsulfonyl)-1H-pyrazol-4-yl)-N-(4-(4-(2-(dimethylamino)ethyl)piperidin-1-yl)-5-((1-(2,2,2-trifluoroethyl)-1H-pyrazol-4-yl)ethynyl)pyridin-2-yl)pyrimidin-4-amine], the IC50 on EGFR Del19/T790M/C797S (setting [1]) worked out at 1.5 nM; on EGFR Del19/T790M/C797S (setting [10]), 1.5 nM; on EGFR L858R/T790M/C797S (setting [2]), 1 nM; on EGFR L858R/T790M/C797S (setting [11]) it was 0.5 nM; at EGFR Del19/C797S (setting [3]) it was 4.8 nM; on EGFR Del19/C797S (setting [12]), 2.6 nM. Further, the IC50 against EGFR L858R/C797S (setting [4]) stood at 9.4 nM; at EGFR L858R/C797S (setting [13]), 1.4 nM; at EGFR wildtype (WT) (IC50 WT (nM), 100 μM ATP), 844 nM; at EGFR wildtype (WT) (setting [14]), 9.1 nM.

Take `CC1(CO)CCN(c2cc(Nc3ccnc(-c4cnn(S(=O)(=O)C5CC5)c4)n3)ncc2C#CC2CCCC2)CC1` [Example 251, (1-(5-(Cyclopentylethynyl)-2-((2-(1-(cyclopropylsulfonyl)-1H-pyrazol-4-yl)pyrimidin-4-yl)amino)pyridin-4-yl)-4-methylpiperidin-4-yl)methanol]: the IC50 came to 3 nM on EGFR Del19/T790M/C797S (setting [5]); 3.3 nM at EGFR Del19/T790M/C797S (setting [1]); 1.4 nM at EGFR L858R/T790M/C797S (setting [6]); 5.3 nM against EGFR L858R/T790M/C797S (setting [2]); 8.7 nM at EGFR Del19/C797S (setting [7]); 15.9 nM against EGFR Del19/C797S (setting [3]). Besides, the IC50 was 41.5 nM at EGFR L858R/C797S (setting [8]); 397 nM against EGFR L858R/C797S (setting [4]); 72.6 nM at EGFR wildtype (WT) (setting [9]); above 10000 nM on EGFR wildtype (WT) (IC50 WT (nM), 100 μM ATP).
